≈ marks a conversion by molar mass, not a printed value.
Settings: buffer; pH 7.4; 200.0 µM

Compound | solubility kinetic [µg/mL]
O=C(NCc1ccccc1)c1cccnc1Sc1ccccc1 | 10.6 (≈ 33.1 µM)
COc1cccc(NC(=O)CN(C)C(=O)CC(C)c2ccccc2)c1 (stereo unspecified) | 40 (≈ 118 µM)
O=C(N/C(=C\c1ccco1)C(=O)N1CCCC(CO)C1)c1ccccc1 (stereo unspecified) | > 53.2
COC(=O)c1cc(OC)c(OC)cc1NC(=O)CSCc1c(C)noc1C | 15.6 (≈ 39.5 µM)
Cc1ccc(Cc2c(C)[nH]c(=S)[nH]c2=O)cc1 | 7.4 (≈ 30 µM)
Nc1cc(=O)[nH]c(SCC(=O)Nc2cccnc2Cl)n1 | > 46.8
CN=C1S/C(=C\c2c(OC)cc(OC)cc2OC)C(=O)N1C | 1.1 (≈ 3.41 µM)
COc1cc(/C=N/NC(=O)CNC(=O)c2ccncc2)ccc1OC(C)=O | > 55.6
COC(=O)c1ccc(C)c(NS(=O)(=O)c2cn(C)nc2C)c1 | > 48.5
O=C(Nc1ccc(CN2CCOCC2)cc1)c1ccc(Cl)cc1Cl | 19.9 (≈ 54.5 µM)
O=C(CN1C(=O)NC2(CCCCCCC2)C1=O)Nc1c(Cl)cccc1Cl | 7.4 (≈ 18.6 µM)
Cn1c(Nc2ccccc2)nc2ccccc21 | 25.9 (≈ 116 µM)
COc1ccc2cc(/C=N/O)c(Cl)nc2c1 | 0.9 (≈ 3.8 µM)
CN(C)C(=O)COc1ncnc2sc(-c3ccccc3)cc12 | 13.9 (≈ 44.4 µM)
COc1ccc(/C=C2\C(=O)NC(=S)N(C)C2=O)cc1C | > 43.6
Cc1cc(C(=O)NCc2ccc(F)cc2)c2ccccc2n1 | 15.8 (≈ 53.7 µM)
O=C(COC(=O)c1ccco1)NC1CCCC1 | 28.1 (≈ 118 µM)
COc1cc(CCC(=O)Nc2ncc(C)s2)cc(OC)c1OC | 18.8 (≈ 55.9 µM)
O=C1Nc2ccc(S(=O)(=O)NCCCO)c3cccc1c23 | > 46
O=C(CN1CCN(Cc2ccc(F)cc2)CC1)Nc1ccccc1F | > 51.8
COC(=O)C(C)N=Cc1ccccc1 (stereo unspecified) | 21 (≈ 110 µM)
O=C(Nc1cccc([N+](=O)[O-])c1)C1C2/C=C\CCCCC21 (stereo unspecified) | < 0.3
CN1CCC(N(C)C(=O)CNC(=O)c2ccc(C(C)(C)C)cc2)CC1 | 39.5 (≈ 114 µM)
Fc1ccccc1-c1nc2ncccc2o1 | 31 (≈ 145 µM)
Cn1c(=O)c([N+](=O)[O-])c(-n2ccnc2)c2ccccc21 | 37.4 (≈ 138 µM)

Compound | solubility kinetic [µg/mL]
COc1ccc(F)cc1S(=O)(=O)NCCCn1ccnc1 | > 47
CC1CCCN(C(=O)COC(=O)Cc2c[nH]c3ccccc23)C1 (stereo unspecified) | > 47.2
CC(=NCC1CCCO1)c1c(O)n(-c2ccccc2C)c(=O)[nH]c1=O (stereo unspecified) | > 51.5
CC1CCN(C(=S)c2ccc(N(C)C)cc2)CC1 | 5.4 (≈ 20.6 µM)
CCCN1CCN(C(=O)c2c(Cl)cnn2C)CC1 | > 40.6
CC(C)c1c(O)nc(SCCOc2ccc(Cl)cc2)[nH]c1=O | 44.7 (≈ 131 µM)
O=C(Nc1cccc2ccccc12)N1CCN(c2ncccn2)CC1 | > 50
CC(C)Cc1csc(NC(=O)c2ccc(Br)cc2)c1C(=O)O | 53.6 (≈ 140 µM)
CCn1c(=O)c(C(=O)Nc2ccccc2)c(O)c2ccccc21 | < 0.3
Cc1ccc(-c2nc(N)sc2-c2ccc(C)cc2)cc1 | 0.5 (≈ 1.78 µM)
CC1CCN(c2ccc(C(F)(F)F)cc2N)CC1 | < 0.3
CC1CCC(NC(=O)COC(=O)c2ccco2)CC1 (stereo unspecified) | > 39.8
Cc1ccnc(NC(=O)c2ccc(C(=O)c3ccccc3)cc2)c1 | 25.8 (≈ 81.6 µM)
CNc1nc(NCc2ccccc2)c2ccccc2n1.Cl | 37
CCc1ccc(N/C(=N/c2nc(C)cc(C)n2)NC(C)=O)cc1 | 9.2 (≈ 29.5 µM)
CC(Nc1nc(N2CCOCC2)nc2ccccc12)c1ccccc1 (stereo unspecified) | 6.8 (≈ 20.3 µM)
COc1ccc2cc(CCNC(=O)CCc3ccccc3)c(=O)[nH]c2c1 | 4.8 (≈ 13.7 µM)
CN(C)CCn1c(=S)[nH]c2ccc(Cl)cc2c1=O | > 42.6
Cc1ccc2cccc(OCC(=O)N3CC(C)CC(C)C3)c2n1 (stereo unspecified) | 46.2 (≈ 148 µM)
Oc1cccc2ccc(N3CCOCC3)nc12 | > 34.5
O=C1C2CCCN2C(=S)N1C1CCCCC1 (stereo unspecified) | > 35.8
Cc1ccc(Cc2c(C)c(C#N)c3[nH]c4ccccc4n3c2=O)cc1 | < 0.2
O=C(/C=C/c1ccco1)Nc1cccnc1Cl | 33 (≈ 133 µM)
O=C(c1ccccc1)n1c(=O)c(F)cn(COCCBr)c1=O | > 55.7
O=C(CCSCc1ccc(Cl)cc1)NCc1ccco1 | 39.5 (≈ 127 µM)

Compound | solubility kinetic [µg/mL]
CN1CCN(C(=O)NCC23CC4CC(CC(C4)C2)C3)CC1 | > 43.7
Cc1cccc[n+]1CC(=O)c1ccc(Cl)cc1.[Cl-] | 32.9
C[N+]1(C)CCCC(OC(=O)C(O)(c2ccccc2)c2ccccc2)C1.[Br-] (stereo unspecified) | > 63.1
CCn1ccnc1CN(C)Cc1nc(-c2cccc(Cl)c2)no1 | 37.8 (≈ 114 µM)
O=C(Nc1ccc2nc(N3CCOCC3)sc2c1)c1ccccc1 | 7.2 (≈ 21.2 µM)
CC1(C)CC(NCc2ccncc2)CC(C)(C)N1 | 32.2 (≈ 130 µM)
COc1ccc(Nc2nc(C)nc3c2oc2ccccc23)c(OC)c1 | < 0.2
O=[N+]([O-])c1ccc(O)c(Nc2ncnc3ccccc23)c1 | 1.4 (≈ 4.96 µM)
O=C(COC(=O)C1CCN(S(=O)(=O)c2cccs2)CC1)Nc1ccc(F)cc1Cl | 17.7 (≈ 38.4 µM)
O=C(CSc1cccc(C(F)(F)F)c1)Nc1ccc(N2CCOCC2)cc1 | 7.7 (≈ 19.4 µM)
CCC(C)c1ccc(NC(=O)N2CCOCC2)cc1 (stereo unspecified) | 37.4 (≈ 143 µM)
O=C(CSCc1ccc(Cl)cc1Cl)Nc1ccc(O)cc1C(=O)O | > 57.9
Cc1c(/C=C2\NC(=O)NC2=O)c2ccccc2n1C | 36.9 (≈ 145 µM)
CC1(C)CC(=O)C2=C(C1)NC(=S)C(C#N)C21CCCCC1 (stereo unspecified) | > 45.4
COc1ccc(C)cc1NC(=O)NCc1ccccc1F | 2 (≈ 6.94 µM)
COc1ccc(-n2c(C)ccc2-c2ccccc2)cn1 | 5.9 (≈ 22.3 µM)
Cc1ccc(S(=O)(=O)N2CCOCC2)cc1NC(=O)c1ccc(F)cc1F | 8.2 (≈ 20.7 µM)
CC(NC(=O)c1ccco1)C12CC3CC(CC(C3)C1)C2 (stereo unspecified) | > 41
CC(C)(C)C(=O)N1CCn2c1nc1ccccc12 | 31.9 (≈ 131 µM)
O=C(NC1CCCC1)c1cc2c(=O)n3ccccc3nc2s1 | 11.2 (≈ 35.7 µM)
O=C(CN1C(=O)NC2(CCCCCC2)C1=O)c1ccc(F)cc1 | > 47.8
CS(=O)(=O)N(CC(=O)NCCSCc1cccc(Cl)c1)c1ccc(F)cc1 | 38 (≈ 88.2 µM)
CC(C)(C)C(=O)COC(=O)C1=NN(c2ccccc2)C(=O)CC1 | > 47.5
COc1ccc(C(=O)NCCn2cc(SCC(N)=O)c3ccccc32)cc1 | 50.6 (≈ 132 µM)
CC1CCN(C(=O)CC#N)CC1 | > 24.9

Compound | solubility kinetic [µg/mL]
O=C(Cn1c2ccc(F)cc2c2nc3n(c(=O)c21)CCS3)N1CCCC1 | > 55.9
COc1ccc(CCC(=O)Nc2ncc(C)s2)cc1 | 4.1 (≈ 14.8 µM)
Cc1ccc(C(=O)NC(C)c2ccc(S(N)(=O)=O)cc2)s1 (stereo unspecified) | > 48.7
C#CCN1C(=O)S/C(=C\c2cc3c(cc2OC)OCO3)C1=O | 1.1 (≈ 3.47 µM)
CN(CCC#N)C(=O)CC1(Cc2ccccc2)CCOC(C)(C)C1 (stereo unspecified) | > 49.3
c1cncc(C2Nc3cccc4cccc(c34)N2)c1 | > 37.1
Cc1ccc(NC(=O)CCC(=O)c2cccs2)c(Br)c1 | 8.6 (≈ 24.4 µM)
COc1cc(F)ccc1S(=O)(=O)NCc1cccnc1 | > 44.4
Cc1ccc(C(=O)NC(=O)CSc2nncn2C)cc1 | > 43.6
Cc1nnc(N)s1 | > 17.3
CC(Nc1nc(=S)nc(Nc2ccc(F)cc2)[nH]1)c1ccccc1 (stereo unspecified) | 0.6 (≈ 1.76 µM)
COc1ccc(-n2c(C)nc(N)c2C(=O)c2ccccc2)cc1 | 19.8 (≈ 64.4 µM)
CCSc1nsc(NC(=O)Nc2cccc(C(C)=O)c2)n1 | 1.6 (≈ 4.96 µM)
CN(Cc1ccc(F)cc1)C(=O)COc1ccc2ccccc2c1 | < 0.7
CCCCc1ccc(NC(=S)N2CCN(C(=O)OCC)CC2)cc1 | 2.2 (≈ 6.29 µM)
CSCCC(NC(=O)C1CCCCC1)c1nc2ccccc2[nH]1 (stereo unspecified) | 23 (≈ 69.4 µM)
O=S1(=O)CCN(Cc2csc(-c3cccs3)n2)CC1 | > 47.2
CCOC(=O)N1CCN(S(=O)(=O)c2ccc(Cl)cc2)CC1 | 48.4 (≈ 145 µM)
Cc1cccc(NC(=O)NCCN2CCCCC2)c1 | > 39.2
CN1C(=O)N(C)C(c2cccc([N+](=O)[O-])c2)C2=C1CCCC2=O (stereo unspecified) | > 47.3
CN(CC(=O)Nc1ccc(SC(F)F)cc1)C1CCCCC1 | 32.2 (≈ 98 µM)
CCOc1ccc(CN(C)C(=O)CNC(=O)c2ccccc2)cc1 | > 49
CCCN1CCC(NC(=O)Cc2ccccc2OC)CC1 | 43.5 (≈ 150 µM)
CCOC(=O)CCCCCN1C(=O)c2cccc3cccc(c23)C1=O | 6.4 (≈ 18.9 µM)
CCN(CCS(=O)(=O)c1ccc(Cl)cc1)Cc1nc2ccccc2c(=O)[nH]1 | > 60.9

Compound | solubility kinetic [µg/mL]
O=C(O)c1ccccc1NS(=O)(=O)c1cccc(NS(=O)(=O)c2cc(Br)ccc2Br)c1 | > 88.5
C[C@H](NC(N)=O)C(=O)OCC(=O)NCc1cccs1 | > 42.8
c1ccc(-c2csc3ncnc(NCc4ccccn4)c23)cc1 | 40.1 (≈ 126 µM)
CCCCn1nc(C(=O)N(C)CC(=O)Nc2ccc(F)c(F)c2F)ccc1=O | > 59.5
CCOc1ccc(-c2cnc3n2CCCCC3)cc1 | 32 (≈ 125 µM)
COc1ccc(C(CC(=O)O)N2Cc3ccccc3C2=O)cc1OC (stereo unspecified) | > 51.2
CCOC(=O)c1sc2ncc([N+](=O)[O-])cc2c1N | 3.8 (≈ 14.2 µM)
CCCc1cc(=O)c2ccc(OC/C(C)=N/O)cc2o1 | 38.3 (≈ 139 µM)
C=C1CCc2c([nH]c3ccc(OCC(C)C)cc23)C1=O | 0.8 (≈ 2.97 µM)
CCc1c(C(=O)Nc2ccccc2C(N)=O)csc1C | 3.6 (≈ 12.5 µM)
O=C(NC(=O)N1CCC2(CC1)OCCO2)c1ccc(Cl)cc1 | > 48.7
CC(=O)N1CCN(CC(=O)Nc2sccc2C#N)CC1 | 39 (≈ 133 µM)
CCOc1ccccc1NC(=S)NC(=O)C1CC1 | 2.6 (≈ 9.84 µM)
Cc1ccc(C(=O)OCC(=O)NCc2ccc3c(c2)OCO3)o1 | > 47.6
O=C(O)CSC1CC(=O)N(c2ccc(Br)cc2)C1=O (stereo unspecified) | > 51.6
COc1cc(NC(=S)N2CCN(C)CC2)cc(OC)c1 | > 44.3
O=C(NC1CCCCCC1)C(=S)NCc1ccccc1 | 1.6 (≈ 5.51 µM)
Cc1c(C(=O)N2CCC2)oc2ccc(Cl)cc12 | 15.6 (≈ 62.5 µM)
COc1ccc(S(=O)(=O)N2CCN(CCc3ccccc3)CC2)cc1 | 1.5 (≈ 4.16 µM)
Brc1cc(-c2ccccc2)nc(-c2ccccc2)n1 | < 0.3
NS(=O)(=O)c1ccc(CCNC(=O)CCc2ccccc2)cc1 | 46.4 (≈ 140 µM)

From PubChem BioAssay AID1996
